Experimental data reported in US11744815B1, “Pharmaceutical composition of dimethylguanidino valeric acid and plant flavonoids for treating chronic inflammatory diseases and cancer” (priority 2022, dated 2023).
“Also recorded” adds a separate entry of the source.

Assays:
AGXT2^−/− T cells = assay: ROS induction in AGXT2-KO T cells; type: cell-based, mice; conditions: ADMA 10 μM, SDMA 10 μM, DMGV (504)
Method: DMGV is converted from asymmetric dimethylarginine (ADMA) or symmetric dimethylarginine (SDMA) by alanine-glyoxylate aminotransferase 2 (AGXT2) in the mitochondria whereas ADMA or SDMA is metabolized to L-citrulline in the cytosol as shown in FIG. 6A. In order to investigate the role of DMGV in T cells, we generated AGXT2-KO (AGXT2^−/−) mice using Crispr/Cas9 technology according to FIG. 6B. Neither ADMA (10 μM) or SDMA (10 μM) induce ROS in AGXT2^−/− T cells but DMGV (504) still does, an evidence that SDMA or ADMA induces ROS only when they are converted to DMGV (FIG. 6C).

Jurkat T cells = assay: Mitochondrial ROS by flow cytometry using CellROX Green, Jurkat T cells; type: cell-based, human; conditions: for induction of ROS: kaempferol 5 μM, quercetin 25 μM, daidzein 5 μM
Method: (§1) The invention further investigated how DMGV suppresses cell proliferation and survival.
In order to locate the cellular compartment of ROS generated by DMGV, Jurkat T cells were incubated with the mitochondria-specific ROS inhibitor MitoQ (100 nM) for 15 min before stimulation with DMGV (504) for ROS measurement.
(§2) As certain flavonoids are known to active MCU, we tested whether DMGV and the flavonoids activate MCU in the same manner. Jurkat T cells were treated with the flavonoids [kaempferol (5 μM), quercetin (25 μM), or daidzein (5 μM)]. […] The molecular docking simulator SwissDock predicted that the flavonoids and DMGV bind to MCU in a same pocket.

[1] = tested on: AGXT2^+/+ and AGXT2^−/− T cells; assay: Survival of AGXT2^+/+ and AGXT2^−/− T cells, 4 days, flow cytometry; type: cell-based, mice
Method: To investigate the role of AGXT2 and DMGV in T cell survival, AGXT2^+/+ and AGXT2^−/− T cells were stimulated with the indicated compounds (ADMA: 10 μM, SDMA: 10 μM, DMGV: 504, MitoQ: 100 nM) for 4 days and the survival rate was measured by flow cytometry.

human T cells [2] = assay: Human T cell survival by flow cytometry after 4 days; type: cell-based
T cell = assay: ROS induction and T cell proliferation with selective iNOS inhibitor; type: cell-based
[3] = tested on: MCU mutants deleted of Ile127, V135, or Ile127 and V135; assay: MCU deletion mutants transfected to MCU KO cells; type: cell-based; conditions: for dependence of MCU activation on Ile127: MCU mutant deleted of Ile127 in MCU KO cells; for dependence of MCU activation on V135: MCU mutant deleted of V135 in MCU KO cells
Excerpt: To test whether Ile127 and V135 are important for these compounds to activate MCU, we generated 3 different MCU mutants deleted of Ile127, V135, or Ile127 and V135. These MCU mutants were transfected to MCU KO cells and stimulated with kaempferol, daidzein, quercetin, or DMGV.

MCU = target: T1, MCU (Homo sapiens, UniProt Q8NE86); assay: Mitochondrial calcium influx in Jurkat cells expressing Mito-GEM-GECO; type: cell-based; conditions: for induction of mitochondrial calcium: Jurkat T cells, kaempferol 5 μM, quercetin 25 μM, daidzein 5 μM
T1 construct: endogenous in cells; host or cells: Jurkat T cells
T1 sequence (Q8NE86 51-351): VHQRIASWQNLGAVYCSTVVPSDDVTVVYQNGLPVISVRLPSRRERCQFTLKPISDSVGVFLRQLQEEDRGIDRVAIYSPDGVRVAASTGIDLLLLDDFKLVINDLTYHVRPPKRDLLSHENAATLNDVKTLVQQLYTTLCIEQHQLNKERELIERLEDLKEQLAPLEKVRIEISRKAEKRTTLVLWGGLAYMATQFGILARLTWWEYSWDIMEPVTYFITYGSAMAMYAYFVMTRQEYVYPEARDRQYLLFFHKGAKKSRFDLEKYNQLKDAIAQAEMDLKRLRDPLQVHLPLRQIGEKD
T1 sequence (Q9H4I9 48-107 partner limits assumed): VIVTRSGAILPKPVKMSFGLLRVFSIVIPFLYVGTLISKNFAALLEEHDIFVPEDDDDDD
Method: (§3) As a sudden influx of calcium to the mitochondria can cause ROS induction, we tested whether DMGV regulates calcium flux to induce ROS. Calcium flux was measured by flow cytometry using the calcium indicator Fluo-8. While stimulation of T cell receptor (TCR) by a stimulatory antibody triggered calcium release from ER (efflux), which in turn induced calcium influx from the outside to cytosol (influx). […] Because of the close proximity between ER and mitochondria, calcium efflux from ER leads to calcium import to the mitochondria, which can be mediated by MCU.
as §2

calcium flux = assay: Calcium flux by flow cytometry using Fluo-8; type: cell-based
Method: as §3

activated T cells [4] = assay: Energy metabolism by Seahorse assay; type: cell-based, mouse
Excerpt: The invention tested if DMGV relied on glycolysis to suppress cell survival.

[5] = tested on: THP-1 (Acute monocytic leukemia cell lines); assay: Survival of hematological cancer cell line THP-1; type: cell-based
[6] = tested on: HL-60 (Acute myeloid leukemia M3 cell lines); assay: Survival of hematological cancer cell line HL-60; type: cell-based
[7] = tested on: HCT-8 (Human colorectal cancer cell lines); type: cell-based
Method: (§4) In example one, pharmaceutical composition was screened and discovered natural small molecules that inhibit T cell survival and proliferation to use as therapeutics for chronic inflammatory diseases and cancers as taught in FIG. 1, T cells were stimulated with or without the indicated amount of DMGV and survival was measured by flow cytometry after 3 days. […] Solid tumor cancer cell lines were incubated with different doses of DMGV or 5-FU (5-fluorouracil), and cells survival was measured by CCK-8 after 2 days.

human T cells [8] = assay: Mitochondrial ROS by flow cytometry using CellROX Green, human T cells; type: cell-based
Excerpt: as §1

mouse T cells [9] = assay: Mouse T cell survival in RPMI with or without glucose, 4 days; type: cell-based
Method: In order to test the effects of glycolysis on the DMGV function to inhibit survival, mouse T cells were activated with or without DMGV in RPMI with or without glucose for 4 days and the survival rates were measured by flow cytometry. […] Oxidative phosphorylation uses pyruvate, an end product of glycolysis, and thus a diminished glycolysis can decrease oxidative phosphorylation.

[10] = tested on: K-562 (Human chronic myeloid leukemia cell lines); assay: Survival of hematological cancer cell line K-562; type: cell-based
autoimmune arthritis = assay: Chronic autoimmune arthritis in SKG mice accelerated by laminarian; type: in vivo; conditions: i.p. 750 μg/mouse, twice a week, up to 50 days, start at score 8
Excerpt: In the second model, SKG mice harbor a point mutation in ZAP-70^W163C and Develop Chronic autoimmune arthritis similar to human RA due to aberrant T cell activation. The disease can be accelerated by injection of […].

Jurkat cells = assay: T cell leukemia model, Jurkat cells injected into tail vein of mice; type: in vivo, NSG/SCID mice; conditions: 700 μg/mouse i.p.
Method: The next experiment tested whether DMGV can eliminate cancer cells in vivo. […] After 2 weeks of the injection, the level of Jurkat cells in the peripheral blood reached around 60% of the total leukocytes. The model mice were injected with either PBS (Control) or DMGV (700 μg/mouse intraperitoneal injection, i.p.) for 2 weeks as shown in FIG. 3B.

mouse T cells [11] = assay: Mitochondrial ROS by flow cytometry using CellROX Green, mouse T cells; type: cell-based
Excerpt: as §1

[12] = tested on: PC-3 (Human prostate cancer cell lines); assay: Solid tumor cell survival by CCK-8 after 2 days, PC-3; type: cell-based
Method: as §4

[13] = tested on: HCA-7 (colorectal cancer cell lines); assay: Solid tumor cell survival by CCK-8 after 2 days, HCA-7; type: cell-based
Method: as §4

chronic colitis = assay: Chronic colitis by adoptive transfer of naïve CD4+ T cells; type: in vivo, Rag2^−/− mice
Excerpt: The present invention tested if DMGV suppresses chronic T cell-mediated inflammation in two mouse models. In the first model, adoptive transfer of naïve CD4^+ T cells from syngeneic mice into immunodeficient (Rag2^−/−) mice induces chronic colitis similar to inflammatory bowel diseases (IBD) in humans, due to differentiation of T cells into pathogenic Th17 cells in the absence of regulatory T cells (Tregs). After adoptively transferring naïve CD4^+ T cells from syngeneic mice to recombinase activating gene-2-deficient (Rag2^−/−) mice to induce colitis, the mice showing the disease symptom in the form of loose stool around 4-6 weeks were randomly divided into two groups. One group (n=9) was treated with DMGV (i.p. 750 μg/mouse, twice a week) and the control group (n=11) with PBS up to 40 days and mortality was observed.

[14] = tested on: Jurkat (Human T lymphocytic leukemia cell lines); assay: Survival of hematological cancer cell line Jurkat; type: cell-based
activated T cells [15] = assay: T cell survival by flow cytometry after 3 days; type: cell-based; conditions: stimulated with indicated amount of DMGV
Method: as §4

[16] = MitoQ 100 nM with DMGV 504, 4 days

`CN(C)C(N)=NCCC[C@H](N)C(=O)O` [ADMA, asymmetric dimethylarginine] was tested, and the “ROS induction in AGXT2^−/− T cells” value (AGXT2^−/− T cells) was “do not induce ROS”.

`COC1=C(OC)C(=O)C(CCCCCCCCCC[P+](c2ccccc2)(c2ccccc2)c2ccccc2)=C(C)C1=O` [MitoQ, reference compound] was tested, and the “effect on DMGV-induced ROS production” value (Jurkat T cells; MitoQ (100 nM) 15 min before stimulation with DMGV (504)) was “completely inhibited ROS production”, the “effect on DMGV-induced inhibition of AGXT2^+/+ T cells” value [1, 16] was “rescued AGXT2^+/+ T cells from DMGV-induced inhibition” and the “effect on DMGV-induced rescue of AGXT2^−/− T cells” value [1, 16] was “inhibited DMGV-induced rescue of AGXT2^−/− T cells”. For the same compound, the “effect on DMGV-induced T cell death” value (human T cells [2]; human T cells, DMGV with or without MitoQ, 4 days) was “rescued T cells from DMGV-induced cell death”.

In the case of `CC(=N)NCCCC[C@H](N)C(=O)O` [N6-(1-iminoethyl)-L-lysine], the ROS induction (T cell) was “does not induce ROS” and the T cell proliferation (T cell) was “does not induce ROS or inhibit T cell proliferation”.

For `CN=C(NC)NCCC[C@H](N)C(=O)O` [SDMA, symmetric dimethylarginine], the “ROS induction in AGXT2^−/− T cells” value (AGXT2^−/− T cells) was “do not induce ROS”.

`O=c1c(-c2ccc(O)cc2)coc2cc(O)ccc12` [daidzein, 7-hydroxy-3-(4-hydroxyphenyl)-4H-chromen-4-one] was tested, and the “dependence of MCU activation on Ile127” value [3] was “independent on it”, the “dependence of MCU activation on V135” value [3] was “mostly dependent on V135” and the “induction of mitochondrial calcium” value (MCU) was “induced mitochondrial calcium”. For the same compound, the “induction of ROS” value (Jurkat T cells; Jurkat T cells) was “induced mitochondrial calcium as wells ROS”.

With `O=c1c(O)c(-c2ccc(O)cc2)oc2cc(O)cc(O)c12` [kaempferol, 3,5,7-Trihydroxy-2-(4-hydroxyphenyl)-4H-chromen-4-one] the “dependence of MCU activation on Ile127” value [3] was “independent on it”, the “dependence of MCU activation on V135” value [3] was “totally dependent on it; also recorded: mostly dependent on V135” and the “induction of mitochondrial calcium” value (MCU) was “induced mitochondrial calcium”. The “induction of ROS” value (Jurkat T cells; Jurkat T cells) was “induced mitochondrial calcium as wells ROS” and the “survival of activated human T cells” value (human T cells [2]; activated human T cells) was “suppressed survival of activated human T cells via mitochondrial ROS”.

With Ru360 [reference compound] the “effect on DMGV-induced calcium influx to the mitochondria” value (MCU; Ru360 (104)) was “completely inhibited” and the “effect on TCR-induced calcium flux” value (calcium flux; Ru360) was “not affected”.

In the case of dimethylguanidino valeric acid [DMGV], the glycolysis (activated T cells [4]) was “significantly inhibited”, the oxidative phosphorylation (activated T cells [4]) was “significantly inhibited” and the “survival of THP-1 cells” value [5] was “suppresses survival”. The “survival of HL-60 cells” value [6] was “suppresses survival”, the “ROS induction in AGXT2^−/− T cells” value (AGXT2^−/− T cells) was “still does” and the “inhibition of HCT-8 proliferation compared with 5-FU” value [7] was “inhibited proliferation of HCT-8 better than a known chemotherapeutic drug, 5-FU”. The “proliferation of HCT-8” value ([7]; CCK-8 after 2 days) was “suppresses proliferation”, the “suppression of HCT-8 proliferation, 3D versus 2D culture” value ([7]; Matrigel (3D) vs 2-dimensional culture) was “much more effective in suppressing proliferation of HCT-8 cultured in Matrigel™ (3D) than 2D” and the “induction of mitochondrial ROS” value (human T cells [8]) was “rapidly induces mitochondrial ROS”. For the same compound, the “T cell survival in glucose-free culture” value (mouse T cells [9]) was “no longer affected T cell survival”, the “survival of K-562 cells” value [10] was “suppresses survival” and the “dependence of MCU activation on Ile127” value [3] was “completely; also recorded: dependent mostly on Ile127”. For the same compound, the “dependence of MCU activation on V135” value [3] was “independent on Va1135”, the “calcium influx to the mitochondria” value (MCU; Jurkat cells, Mito-GEM-GECO) was “induces calcium influx to the mitochondria” and the “induction of mitochondrial ROS” value (Jurkat T cells; Jurkat T cells) was “rapidly induces mitochondrial ROS”. For the same compound, the “ROS induction in glucose-free medium” value (Jurkat T cells; Jurkat T cells in RPMI without glucose for 24 h) was “does not induce ROS”, the “dependence of DMGV-induced ROS on MCU” value (Jurkat T cells; Ru360 or MCU KO) was “dependent on MCU” and the arthritis score (autoimmune arthritis) was “significantly decreased the arthritis score”. For the same compound, the “Jurkat cells in the peripheral blood” value (Jurkat cells; after 2 weeks of treatment) was “completely eliminated Jurkat cells”, the cancer-induced death (Jurkat cells; after 4 weeks of treatment) was “prevented the cancer-induced death” and the “induction of mitochondrial ROS” value (mouse T cells [11]) was “rapidly induces mitochondrial ROS”. The “proliferation of PC-3” value [12] was “suppresses proliferation”, the “calcium efflux (release from ER)” value (calcium flux; Fluo-8) was “induced efflux” and the “calcium influx from the outside to cytosol” value (calcium flux; Fluo-8) was “not influx”. For the same compound, the “survival of AGXT2^+/+ T cells” value ([1]; DMGV: 504, 4 days) was “inhibited survival of AGXT2^+/+ T cells”, the “survival of AGXT2^−/− T cells” value ([1]; DMGV: 504, 4 days) was “rescued AGXT2^−/− T cells” and the “proliferation of HCA-7” value [13] was “suppresses proliferation”. For the same compound, the “survival (mortality) of colitis mice” value (chronic colitis; i.p. 750 μg/mouse, twice a week, up to 40 days, n=9) was “all except for one mouse survived”, the “normalized IL-17A+ T cell number in colonic tissue” value (chronic colitis; survived mice, compared to the control group) was “significantly lower” and the “survival of Jurkat cells” value [14] was “suppresses survival”. The “survival and proliferation of activated T cells” value (activated T cells [15]) was “inhibit the survival and proliferation of activated T cells”.
